System: YAP-TEAD
Experiment: TEAD inhibition, Hippo Pathway TEAD Reporter MCF-7 luciferase assay
Type: cell-based
Conditions: Homo sapiens, MCF7, 24 h, Hippo Pathway TEAD Reporter MCF-7 cells, luciferase activity after 24 h; read-out: IC50 of the test compounds on YAP-TEAD inhibition (Group)
In short: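 IC50 derived from ONE-Glo luciferase luminescence after 24 h compound exposure (11 concentrations in quadruplicate, 0.1% DMSO control). Reporter: MCF-7 line expressing firefly luciferase under TEAD elements, constitutively activated by nuclear YAP1.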

COc1ccc(Oc2ccc(C(F)(F)F)cn2)cc1NC(=O)[C@H]1CCC(=O)N1C1CC1 [Compound 128, (R)-1-Cyclopropyl-N-(2-methoxy-5-((5-(trifluoromethyl)pyridin-2-yl)oxy)-phenyl)-5-oxopyrrolidine-2-carboxamide]
IC50: < 50 nM

COc1ccc(Oc2ccc(C(F)(F)F)cn2)cc1NC(=O)[C@@H]1CCC(=O)N1C1CC1 [Compound 129, (S)-1-Cyclopropyl-N-(2-methoxy-5-((5-(trifluoromethyl)pyridin-2-yl)oxy)-phenyl)-5-oxopyrrolidine-2-carboxamide]
IC50: < 50 nM

COc1ccc(Oc2ccc(C(F)(F)F)cn2)cc1NC(=O)[C@@H]1CNC(=O)N1C [Compound 130, (S)—N-(2-Methoxy-5-((5-(trifluoromethyl)pyridin-2-yl)oxy)phenyl)-3-methyl-2-oxoimidazolidine-4-carboxamide]
IC50: < 50 nM

COc1ccc(Oc2ccc(C(F)(F)F)cn2)cc1NC(=O)C1CNC(=O)N1C1CC1 (stereo not shown) [Compound 131, 3-Cyclopropyl-N-(2-methoxy-5-((5-(trifluoromethyl)pyridin-2-yl)oxy)phenyl)-2-oxoimidazolidine-4-carboxamide]
IC50: < 50 nM

COc1ccc(Oc2ccc(C(F)(F)F)cc2)cc1NC(=O)[C@@]1(C)CCC(=O)N1C [Compound 134, (R)—N-(2-methoxy-5-(4-(trifluoromethyl)phenoxy)phenyl)-1,2-dimethyl-5-oxopyrrolidine-2-carboxamide]
IC50: < 50 nM

COc1ccc(Oc2ccc(C(F)(F)F)cc2)cc1NC(=O)[C@]1(C)CCC(=O)N1C [Compound 135, (S)—N-(2-Methoxy-5-(4-(trifluoromethyl)phenoxy)phenyl)-1,2-dimethyl-5-oxo-pyrrolidine-2-carboxamide]
IC50: 50 to 300 nM

COc1ccc(Oc2ccc(C(F)(F)F)cc2)cc1NC(=O)C1CCC(=O)N1CC(N)=O (stereo not shown) [Compound 136, 1-(2-Amino-2-oxoethyl)-N-(2-methoxy-5-(4-(trifluoromethyl)phenoxy)phenyl)-5-oxopyrrolidine-2-carboxamide]
IC50: < 50 nM

COc1ccc(Oc2ccc(C(F)(F)F)cc2)cc1NC(=O)C1CCC(=O)N1c1cnn(C)c1 (stereo not shown) [Compound 137, N-(2-Methoxy-5-(4-(trifluoromethyl)phenoxy)phenyl)-1-(1-methyl-1H-pyrazol-4-yl)-5-oxopyrrolidine-2-carboxamide]
IC50: 301 to 2000 nM

COc1ccc(Oc2ccc(C(F)(F)F)cc2)cc1NC(=O)C1CCC(=O)N1C1CCOC1 (stereo not shown) [Compound 138, N-(2-Methoxy-5-(4-(trifluoromethyl)phenoxy)phenyl)-5-oxo-1-(tetrahydrofuran-3-yl)pyrrolidine-2-carboxamide]
IC50: 50 to 300 nM

COc1ccc(Oc2ccc(C(F)(F)F)cc2)cc1NC(=O)C1CN(C)C(=O)N1C (stereo not shown) [Compound 139, N-(2-Methoxy-5-(4-(trifluoromethyl)phenoxy)phenyl)-1,3-dimethyl-2-oxo-imidazolidine-4-carboxamide]
IC50: < 50 nM

COc1ccc(Oc2ccc(C(F)(F)F)cc2)cc1NC(=O)[C@H]1CNC(=O)N1C [Compound 140, (R)—N-(2-Methoxy-5-(4-(trifluoromethyl)phenoxy)phenyl)-3-methyl-2-oxo-imidazolidine-4-carboxamide]
IC50: 50 to 300 nM

COc1ccc(Oc2ccc(C(F)(F)F)cc2)cc1NC(=O)[C@@H]1CNC(=O)N1C [Compound 141, (S)—N-(2-Methoxy-5-(4-(trifluoromethyl)phenoxy)phenyl)-3-methyl-2-oxoimidazolidine-4-carboxamide]
IC50: < 50 nM

COc1ccc(Oc2ccc(C(F)(F)F)cc2)cc1NC(=O)C1CN(C)C(=O)N1C(C)=O (stereo not shown) [Compound 142, 3-Acetyl-N-(2-methoxy-5-(4-(trifluoromethyl)phenoxy)phenyl)-1-methyl-2-oxoimidazolidine-4-carboxamide]
IC50: 301 to 2000 nM

COc1ccc(Oc2ccc(C(F)(F)F)cc2)cc1NC(=O)[C@@H]1CC(OC)C(=O)N1C (stereo partly drawn) [Compound 143, (2S)-4-Methoxy-N-(2-methoxy-5-(4-(trifluoromethyl)phenoxy)phenyl)-1-methyl-5-oxopyrrolidine-2-carboxamide]
IC50: < 50 nM

COc1ccc(Oc2ccc(C(F)(F)F)cc2)cc1NC(=O)C1CNC(=O)N1 (stereo not shown) [Compound 144, N-(2-Methoxy-5-(4-(trifluoromethyl)phenoxy)phenyl)-2-oxoimidazolidine-4-carboxamide]
IC50: 50 to 300 nM

COc1ccc(Oc2ccc(C(F)(F)F)cc2)cc1NC(=O)C1CCC(=O)N1CC1CC1 (stereo not shown) [Compound 147, 1-(Cyclopropylmethyl)-N-(2-methoxy-5-(4-(trifluoromethyl)phenoxy)phenyl)-5-oxopyrrolidine-2-carboxamide]
IC50: 50 to 300 nM

COc1ccc(Oc2ccc(C(F)F)cc2)cc1NC(=O)C1CNC(=O)N1C (stereo not shown) [Compound 149, N-(5-(4-(Difluoromethyl)phenoxy)-2-methoxyphenyl)-3-methyl-2-oxoimidazoli-dine-4-carboxamide]
IC50: < 50 nM

CN1C(=O)CC[C@H]1C(=O)Nc1cc(O[C@H]2CC[C@H](C(F)(F)F)CC2)cc2c1OCC2 [Compound 150, (S)-1-Methyl-5-oxo-N-(5-(((trans)-4-(trifluoromethyl)cyclohexyl)oxy)-2,3-dihydrobenzofuran-7-yl)pyrrolidine-2-carboxamide]
IC50: < 50 nM

CN1C(=O)CC[C@@H]1C(=O)Nc1cc(O[C@H]2CC[C@H](C(F)(F)F)CC2)cc2c1OCC2 [Compound 151, (R)-1-Methyl-5-oxo-N-(5-(((trans)-4-(trifluoromethyl)cyclohexyl)oxy)-2,3-dihydrobenzofuran-7-yl)pyrrolidine-2-carboxamide]
IC50: < 50 nM

COc1cc(F)c(Oc2ccc(C(F)(F)F)cn2)cc1NC(=O)C1COC(=O)N1C (stereo not shown) [Compound 152, N-(4-Fluoro-2-methoxy-5-((5-(trifluoromethyl)pyridin-2-yl)oxy)phenyl)-3-methyl-2-oxooxazolidine-4-carboxamide]
IC50: < 50 nM

COc1cc(F)c(Oc2ccc(C(F)(F)F)cn2)cc1NC(=O)C1CNC(=O)N1C (stereo not shown) [Compound 153, N-(4-Fluoro-2-methoxy-5-((5-(trifluoromethyl)pyridin-2-yl)oxy)phenyl)-3-methyl-2-oxoimidazolidine-4-carboxamide]
IC50: < 50 nM

COc1cc(F)c(Oc2ccc(C(F)(F)F)cn2)cc1NC(=O)[C@H]1COC(=O)N1C [Compound 154, (R)—N-(4-Fluoro-2-methoxy-5-((5-(trifluoromethyl)pyridin-2-yl)-oxy)phenyl)-3-methyl-2-oxooxazolidine-4-carboxamide]
IC50: < 50 nM

COc1cc(F)c(Oc2ccc(C(F)(F)F)cn2)cc1NC(=O)[C@H]1CNC(=O)N1C [Compound 155, (R)—N-(4-Fluoro-2-methoxy-5-((5-(trifluoromethyl)pyridin-2-yl)oxy)phenyl)-3-methyl-2-oxoimidazolidine-4-carboxamide]
IC50: 50 to 300 nM

CN1C(=O)NCC1C(=O)Nc1cc(Oc2ccc(C(F)(F)F)cn2)cc2c1OCC2 (stereo not shown) [Compound 159, 3-Methyl-2-oxo-N-(5-((5-(trifluoromethyl)pyridin-2-yl)oxy)-2,3-dihydrobenzo-furan-7-yl)imidazolidine-4-carboxamide]
IC50: < 50 nM

O=C1CC(C(=O)Nc2cc(Oc3ccc(C(F)(F)F)cn3)cc3c2OCC3)CCN1 (stereo not shown) [Compound 160, 2-Oxo-N-(5-((5-(trifluoromethyl)pyridin-2-yl)oxy)-2,3-dihydrobenzofuran-7-yl)-piperidine-4-carboxamide]
IC50: 50 to 300 nM

— patent US20240246908A1 (ORION CORPORATION, priority 2021, published 2024)
